From publication PMC11048155, “Antiviral Drug Candidate Repositioning for Streptococcus suis Infection in Non-Tumorigenic Cell Models” (Biomedicines, 2024) come the findings set out here.

The subject of series [1] is Salmonella (S.) enterica (clinical isolate). The series is described as follows: MIC measurement (broth microdilution). The series is classed as cell-based. The following applies: source 204/22, 18–24 h at 37 °C. An excerpt:
Bacterial strains used in this study were as follows: S. suis serotype 2 (ATCC 958242) Staphylococcus (S.) aureus (ATCC 10832), Escherichia (E.) coli (ATCC 11775), Pseudomonas (P.) aeruginosa (ATCC 27853), Pasteurella (P.) multocida (clinical isolate), Burkholderia (B.) cepacia (clinical isolate), Salmonella (S.) enterica (clinical isolate), and Enterococcus (E.) faecalis (clinical isolate). Of the clinical isolates used in this study, P. multocida is of porcine origin, B. cepacia is of human origin, and S. enterica and E. faecalis are of poultry origin. The bacterial strains were stored in the Microbiology Laboratory of the University of Veterinary Medicine, Budapest, at a temperature of −80 °C. Bacterial strains were inoculated the day before the test in 5 mL of Cation-Adjusted Mueller–Hinton Broth (CAMHB) and incubated for 18–24 h at 37 °C. The initial inoculum concentration used for the MIC assay was 5 × 10^5/mL. All wells except the first column of the working plates were filled with 90 µL CAMHB. A stock solution of inhibitors at 800 µM was then prepared, 180 µL of which was measured into the first column of plates and used to prepare a 2-based dilution on 96-well plates. After the 10th column, the tips were discarded with the 90 µL excess solution so that each column contained 90 µL of solution. Each bacterial strain was tested in a single row on the working plates. A bacterial suspension diluted to 25× was prepared on an auxiliary plate for bacterial inoculation by loading 240 µL of TSB per column of plates and adding 10–10 µL of bacterial strain suspension per well. In the next step, the isolated bacterial strains were inoculated onto the plates. Starting from column 11 (positive control) of the plates containing dilution row 2, 10 µL of bacterial suspension was added to each well, working backward. Column 11 served as a positive control (containing only bacterial suspension and broth), while column 12 served as a negative control (containing only broth). The microplates were then incubated at 37 °C for 18–24 h, and the MIC values were assessed in comparison to positive controls.

The test system of series [2] is Pasteurella (P.) multocida (clinical isolate). The series is described as follows: MIC measurement (broth microdilution). The class given is cell-based. The following applies: source 380/22, 18–24 h at 37 °C. In general terms: Dilution methods test growth across graded concentrations, often in twofold steps.
Series [3] has as its system Staphylococcus (S.) aureus (ATCC 10832). The series is described as follows: MIC measurement (broth microdilution). The class given is cell-based. The note with it: source ATCC, 18–24 h at 37 °C, read-out: MIC.
The subject of series [4] is S. suis serotype 2. As to the kind of experiment: MIC measurement (broth microdilution). The class given is cell-based, Streptococcus suis. The note with it: source 672/22, 18–24 h at 37 °C.
Series [5] relates to Burkholderia (B.) cepacia (clinical isolate). The series is described as follows: MIC measurement (broth microdilution). The class given is cell-based. The following applies: B. cepacia, source 20-10299; 18–24 h at 37 °C; read-out: MIC.
Series [6] addresses T1, CYP1A2 (Homo sapiens, UniProt P05177).
T1 sequence (P05177 1-516): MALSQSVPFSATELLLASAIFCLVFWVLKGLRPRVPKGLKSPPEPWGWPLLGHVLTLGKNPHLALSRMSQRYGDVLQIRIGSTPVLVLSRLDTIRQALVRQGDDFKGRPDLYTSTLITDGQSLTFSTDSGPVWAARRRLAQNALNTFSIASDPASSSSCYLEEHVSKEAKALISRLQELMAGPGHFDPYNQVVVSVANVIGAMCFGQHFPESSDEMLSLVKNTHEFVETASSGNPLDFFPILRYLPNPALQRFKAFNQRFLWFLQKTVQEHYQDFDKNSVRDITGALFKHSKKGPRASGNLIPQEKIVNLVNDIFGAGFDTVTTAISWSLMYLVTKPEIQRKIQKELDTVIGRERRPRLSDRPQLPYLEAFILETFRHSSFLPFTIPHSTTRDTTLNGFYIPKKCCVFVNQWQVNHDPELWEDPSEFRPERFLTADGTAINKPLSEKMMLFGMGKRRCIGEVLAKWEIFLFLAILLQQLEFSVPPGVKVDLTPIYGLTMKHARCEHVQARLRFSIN
As to the kind of experiment: CYP enzyme fluorometric activity measurement, human hepatic microsomes. The following applies: inhibitor 50 µM, human microsomes, 15 min; p > 0.05. On the procedure: (§1) The Biovision CYP assays (BioVision, Inc., Kampenhout, Belgium) employ non-fluorescent CYP2D6, 2C9, 2C19, 1A2, or 3A4 substrates able to undergo transformation into highly fluorescent detectable metabolites. […] Human hepatic microsomal supernatants were prepared (Gibco, Biocentre, Szeged, Hungary protein concentration: 20 mg/mL) separately by mixing 30 µL with 2425 µL assay buffer and with 50 µL nicotinamide adenine dinucleotide phosphate (NADPH) generating system (100×). […] Control measurements were performed in the absence of the inhibitors.
(§2) In background controls, only assay buffer excluding microsomes and test compounds was used in a volume of 70 µL. Subsequently, after incubation at 37 °C for 15 min, 30 µL of the suitable CYP substrate/NADP+ mixture was incorporated into each well, resulting in a final reaction volume of 100 µL/well. The obtained microsomal protein content was assessed using the bicinchoninic acid protein assay kit (Pierce BCA kit, Thermo Fisher Scientific, Waltham, MA, USA). In each assay, the microsomal protein concentration was calibrated to 100 µg/well. The fluorescence intensities were measured with a fluorometer (Victor X2 2030, Perkin Elmer, Waltham, MA, USA) using λex/em = 406/468 nm for CYP1A2 and for CYP2C19, λex/em = 415/502 nm for CYP2C9, λex/em = 390/468 nm for CYP2D6, and λex/em = 535/587 nm for CYP3A4 assays.

The target in series [7] is CYP3A4 (Homo sapiens, UniProt P08684). Described as above. The note with it: human microsomal preparations, 15 min, 37 °C, p < 0.0001. As for the experimental part: as §1, §2
Series [8] deals with T2, CYP2C19 (Homo sapiens, UniProt P33261).
T2 construct: Human hepatic microsomal supernatants were prepared; tissue Gibco; host or cells: human liver microsomes
The description is as above. The series is classed as in vitro ADME. The following applies: inhibitor 50 µM, 15 min, p > 0.05.

Series [9] has as its system IPEC-J2 cells. The series is described as follows: IL-6 production, porcine IL-6 ELISA. The series is classed as cell-based. The following applies: IPEC-J2, S. suis 10^4 CFU/mL in combination with inhibitor, 24 h. As for the experimental part: (§3) After 24 h incubation time, the cell-free supernatants from […], MI-471, and MI-476 exposure were sampled from IPEC-J2 cells and from porcine hepatocytes. The changes in cytokine levels were detected with porcine IL-6 ELISA kits. The manufacturer’s instructions were followed to treat the supernatants and measured by a SpectraMax iD3 microplate reader at 450 nm.

For series [10], the system named is porcine hepatocytes. As to the kind of experiment: IL-6 production, porcine IL-6 ELISA. The series is classed as cell-based. The note with it: S. suis 10^4 CFU/mL in combination with inhibitor, 24 h. On the procedure: as §3
A general note: An ELISA detects its analyte on a solid surface through an enzyme-linked reagent.

Converted amounts (≈) assume the structure as drawn.

CYP3A4, sequence (P08684 whole entry): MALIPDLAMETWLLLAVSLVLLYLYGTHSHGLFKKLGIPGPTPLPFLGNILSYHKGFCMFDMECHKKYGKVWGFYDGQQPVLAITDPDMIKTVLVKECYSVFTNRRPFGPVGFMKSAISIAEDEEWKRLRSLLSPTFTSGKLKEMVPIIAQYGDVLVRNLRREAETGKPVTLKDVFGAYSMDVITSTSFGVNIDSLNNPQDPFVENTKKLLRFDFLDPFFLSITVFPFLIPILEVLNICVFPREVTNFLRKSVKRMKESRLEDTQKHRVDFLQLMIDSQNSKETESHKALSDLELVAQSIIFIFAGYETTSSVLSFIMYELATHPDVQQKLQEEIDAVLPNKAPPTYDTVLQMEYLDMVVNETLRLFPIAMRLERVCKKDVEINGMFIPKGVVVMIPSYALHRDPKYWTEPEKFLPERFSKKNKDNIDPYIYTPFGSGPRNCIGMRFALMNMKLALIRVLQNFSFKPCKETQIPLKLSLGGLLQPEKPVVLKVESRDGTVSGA
T2 sequence (P33261 whole entry): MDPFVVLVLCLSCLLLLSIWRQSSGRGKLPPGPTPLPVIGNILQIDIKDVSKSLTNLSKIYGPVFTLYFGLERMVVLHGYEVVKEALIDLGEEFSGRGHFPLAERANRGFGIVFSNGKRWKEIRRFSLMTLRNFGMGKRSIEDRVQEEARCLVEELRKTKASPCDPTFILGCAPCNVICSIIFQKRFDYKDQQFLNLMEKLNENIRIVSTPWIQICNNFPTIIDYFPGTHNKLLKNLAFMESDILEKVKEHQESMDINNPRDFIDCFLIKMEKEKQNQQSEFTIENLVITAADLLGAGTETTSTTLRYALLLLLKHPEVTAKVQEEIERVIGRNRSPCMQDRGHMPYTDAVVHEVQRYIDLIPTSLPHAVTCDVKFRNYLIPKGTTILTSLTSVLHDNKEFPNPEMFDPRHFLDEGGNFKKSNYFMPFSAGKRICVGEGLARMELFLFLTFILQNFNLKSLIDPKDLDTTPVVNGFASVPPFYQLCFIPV

As usually defined, the MIC is the smallest concentration in the dilution series that meets the test's criterion for growth inhibition. Consider `N=C(N)c1cccc(C[C@H](NS(=O)(=O)c2cccc(-c3ccc(Cl)cc3Cl)c2)C(=O)N2CCC(N)CC2)c1` [MI-471], for which the minimum inhibitory concentration (MIC) was more than 800 µM in [1]; 50 µM (≈ 28.7 µg/mL) in [2]; 100 µM (≈ 57.5 µg/mL) in series [3]; 3 µM (≈ 1.72 µg/mL) in [4] (Streptococcus suis); 3.125 µM (≈ 1.8 µg/mL) in series [4]; 400 µM (≈ 230 µg/mL) in [5]. The CYP1A2 activity entry in [6] is “No significant inhibitory effects”. The CYP3A4 isoenzyme activity result in series [7] (inhibitor 10 µM), in [7] (inhibitor 25 µM) and in series [7] (inhibitor 50 µM) was “mitigated” in each case. Also, in series [8], the CYP2C19 activity result is “No significant inhibitory effects”. Moreover, the IL-6 levels entry in series [9] and in [10] was “significant anti-inflammatory effects” each time.
As to `N=C(N)c1cccc(C[C@H](NS(=O)(=O)c2cccc(-c3ccc(Cl)cc3Cl)c2)C(=O)N2CCC(CN)CC2)c1` [MI-476], the MIC in series [1] is more than 800 µM; in [2], 50 µM (≈ 29.4 µg/mL); in [3], 100 µM (≈ 58.9 µg/mL); in series [4] (Streptococcus suis), 6 µM (≈ 3.53 µg/mL); in series [4], 6.25 µM (≈ 3.68 µg/mL); in series [5], 400 µM (≈ 235 µg/mL). Also, the CYP1A2 activity entry in [6] is “No significant inhibitory effects”. Further, the CYP3A4 isoenzyme activity result in series [7] (inhibitor 10 µM), in [7] (inhibitor 25 µM) and in series [7] (inhibitor 50 µM) was “mitigated” each time. Besides, the CYP2C19 activity result in series [8] is recorded as “No significant inhibitory effects”. Also, the IL-6 levels entry in [9] and in series [10] was “significant anti-inflammatory effects” throughout.
